According to publication PMC5095700 (Biochemistry, 2016):

Biological target: T1, Glucosamine/glucosaminide N-acetyltransferase (GlmA) (Clostridium acetobutylicum, UniProt Q97ML2, Y297F)
T1 sequence (Q97ML2 1-320 Y297F): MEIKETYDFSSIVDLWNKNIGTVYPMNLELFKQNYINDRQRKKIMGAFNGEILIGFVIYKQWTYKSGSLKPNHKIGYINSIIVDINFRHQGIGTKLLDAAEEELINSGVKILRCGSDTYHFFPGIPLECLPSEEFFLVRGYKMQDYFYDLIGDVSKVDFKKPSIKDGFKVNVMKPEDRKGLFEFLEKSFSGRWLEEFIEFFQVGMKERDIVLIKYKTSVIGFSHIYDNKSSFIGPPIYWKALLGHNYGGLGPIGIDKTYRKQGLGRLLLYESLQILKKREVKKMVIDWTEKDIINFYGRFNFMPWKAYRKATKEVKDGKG
Test: X-ray crystal structure of Y297F variant
Format: binding

For `CC(=O)SCCNC(=O)CCNC(=O)[C@H](O)C(C)(C)COP(=O)(O)OP(=O)(O)OC[C@H]1O[C@@H](n2cnc3c(N)ncnc32)[C@H](O)[C@@H]1OP(=O)(O)O` [AcCoA, acetyl CoA], which “X-ray crystal structure of Y297F variant (1.8 Å)” value is on record?
Its value is “electron density was clearly visible for the acetyl group of the cofactor bound in the C-terminal domain”.
